Experiments:
[1] = molecular target: T1, BCL-2 (Homo sapiens, UniProt P10415); assay: HTRF BCL-2/BAK assay (Cisbio); format: binding; conditions: recombinant human Tag1-BCL-2 2 nM, Tag2-BAK 10 nM
T1 construct: purchased Cisbio 63ADK000CB01PEG
Protocol: (§1) Then the pre-mixed anti-Tag1-Eu^3+ and anti-tag2-XL665 were added to the plate and further incubated at room temperature for another 2 hours. The signals ([…]) were read on Envision 2104 instrument. The IC50 for each compound was derived from fitting the signal of 665/615 nM to the increasing compound concentration.
(§2) Using the above assays, the following compounds were tested.

[2] = molecular target: T2, BCL-XL (Homo sapiens, UniProt Q07817); assay: HTRF BCL-XL/BAK assay (Cisbio); format: binding; conditions: recombinant human Tag1-BCL-XL 2 nM, Tag2-BAK 5 nM
T2 construct: purchased Cisbio 63ADK000CB04PEG
T2 sequence (Q07817 whole entry): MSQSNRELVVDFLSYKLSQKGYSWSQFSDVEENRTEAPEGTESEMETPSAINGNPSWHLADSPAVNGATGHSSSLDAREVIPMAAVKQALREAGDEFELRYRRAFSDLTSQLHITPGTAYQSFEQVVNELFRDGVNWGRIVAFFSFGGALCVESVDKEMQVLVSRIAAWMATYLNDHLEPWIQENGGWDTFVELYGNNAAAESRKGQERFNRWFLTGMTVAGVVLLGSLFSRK
Protocol: as §1, §2

[3] = test system: DOHH2 cells; assay: CellTiter-Glo cell proliferation assay, DOHH2 cells; format: cell-based; conditions: Homo sapiens, DOHH-2, 72 hours
How it was run: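 DOHH2 cells seeded in DMEM + 10% FBS, exposed to serially diluted compound for 72 h at 37 °C, 5% CO2. Viability read by CellTiter-Glo luminescence; GI50 calculated.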

T1 sequence (P10415 whole entry): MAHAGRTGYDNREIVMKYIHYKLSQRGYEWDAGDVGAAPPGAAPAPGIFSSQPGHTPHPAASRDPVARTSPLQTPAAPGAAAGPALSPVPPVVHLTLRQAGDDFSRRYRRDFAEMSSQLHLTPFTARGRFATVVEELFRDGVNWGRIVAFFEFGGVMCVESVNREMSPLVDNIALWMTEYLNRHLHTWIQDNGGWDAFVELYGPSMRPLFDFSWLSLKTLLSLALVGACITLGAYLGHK

Row | SMILES | IC50 [1] | IC50 [2] | GI50 [3]
1 | CN1CCC(CNc2ccc(S(=O)(=O)NC(=O)c3ccc(N4CCN([C@@H]5CCCCc6c(Br)cccc65)CC4)cc3Oc3cnc4[nH]ccc4c3)cc2[N+](=O)[O-])CC1 [Compound 69, (R)-2-((1H-pyrrolo[2,3-b]pyridin-5-yl)oxy)-4-(4-(1-bromo-6,7,8,9-tetrahydro-5H-benzo[7]annulen-5-yl)piperazin-1-yl)-N-((4-(((1-methylpiperidin-4-yl)methyl)amino)-3-nitrophenyl)sulfonyl)benzamide] | < 20 nM | < 20 nM | < 50 nM
2 | O=C(NS(=O)(=O)c1ccc(NCC2CCC3(CC2)COC3)c([N+](=O)[O-])c1)c1ccc(N2CCN([C@@H]3CCCCc4c(Cl)cccc43)CC2)cc1Oc1cnc2[nH]ccc2c1 [Compound 71, (R)-2-((1H-pyrrolo[2,3-b]pyridin-5-yl)oxy)-N-((4-(((2-oxaspiro[3.5]nonan-7-yl)methyl)amino)-3-nitrophenyl)sulfonyl)-4-(4-(1-chloro-6,7,8,9-tetrahydro-5H-benzo[7]annulen-5-yl)piperazin-1-yl)benzamide] | < 20 nM | 20 to 200 nM | < 50 nM
3 | O=C(NS(=O)(=O)c1ccc(NCC2CC3(COC3)C2)c([N+](=O)[O-])c1)c1ccc(N2CCN([C@@H]3CCCCc4c(Cl)cccc43)CC2)cc1Oc1cnc2[nH]ccc2c1 [Compound 72, (R)-2-((1H-pyrrolo[2,3-b]pyridin-5-yl)oxy)-N-((4-(((2-oxaspiro[3.3]heptan-6-yl)methyl)amino)-3-nitrophenyl)sulfonyl)-4-(4-(1-chloro-6,7,8,9-tetrahydro-5H-benzo[7]annulen-5-yl)piperazin-1-yl)benzamide] | < 20 nM | 20 to 200 nM | < 50 nM
4 | O=C(NS(=O)(=O)c1ccc(NCC2CCOCC2)c([N+](=O)[O-])c1)c1ccc(N2CCN([C@@H]3CCCCc4c3cccc4[N+](=O)[O-])CC2)cc1Oc1cnc2[nH]ccc2c1 [Compound 73, (R)-2-((1H-pyrrolo[2,3-b]pyridin-5-yl)oxy)-N-((3-nitro-4-(((tetrahydro-2H-pyran-4-yl)methyl)amino)phenyl)sulfonyl)-4-(4-(1-nitro-6,7,8,9-tetrahydro-5H-benzo[7]annulen-5-yl)piperazin-1-yl)benzamide] | < 20 nM | 20 to 200 nM | 50 to 500 nM
5 | O=C(NS(=O)(=O)c1ccc(NCC2CCC3(CC2)COC3)c([N+](=O)[O-])c1)c1ccc(N2CCN([C@@H]3CCCCc4c3cccc4[N+](=O)[O-])CC2)cc1Oc1cnc2[nH]ccc2c1 [Compound 74, (R)-2-((1H-pyrrolo[2,3-b]pyridin-5-yl)oxy)-N-((4-(((2-oxaspiro[3.5]nonan-7-yl)methyl)amino)-3-nitrophenyl)sulfonyl)-4-(4-(1-nitro-6,7,8,9-tetrahydro-5H-benzo[7]annulen-5-yl)piperazin-1-yl)benzamide] | < 20 nM | 20 to 200 nM | < 50 nM
6 | O=C(NS(=O)(=O)c1ccc(NCC2CC3(COC3)C2)c([N+](=O)[O-])c1)c1ccc(N2CCN([C@@H]3CCCCc4c3cccc4[N+](=O)[O-])CC2)cc1Oc1cnc2[nH]ccc2c1 [Compound 75, (R)-2-((1H-pyrrolo[2,3-b]pyridin-5-yl)oxy)-N-((4-(((2-oxaspiro[3.3]heptan-6-yl)methyl)amino)-3-nitrophenyl)sulfonyl)-4-(4-(1-nitro-6,7,8,9-tetrahydro-5H-benzo[7]annulen-5-yl)piperazin-1-yl)benzamide] | < 20 nM | 20 to 200 nM | < 50 nM
7 | Cc1ccc(S(=O)(=O)N2CCCC(N3CCN(c4ccc(C(=O)NS(=O)(=O)c5ccc(NCC6CCOCC6)c([N+](=O)[O-])c5)c(Oc5cnc6[nH]ccc6c5)c4)CC3)c3ccccc32)cc1 (stereo not drawn) [Compound 76, 2-((1H-pyrrolo[2,3-b]pyridin-5-yl)oxy)-N-((3-nitro-4-(((tetrahydro-2H-pyran-4-yl)methyl)amino)phenyl)sulfonyl)-4-(4-(1-tosyl-2,3,4,5-tetrahydro-1H-benzo[b]azepin-5-yl)piperazin-1-yl)benzamide] | < 20 nM | 200 to 2000 nM | 500 to 5000 nM
8 | O=C(NS(=O)(=O)c1ccc(NCC2CC3(COC3)C2)c([N+](=O)[O-])c1)c1ccc(N2CCN([C@@H]3CCCCc4c(Br)cccc43)CC2)cc1Oc1cnc2[nH]ccc2c1 [Compound 77, (R)-2-((1H-pyrrolo[2,3-b]pyridin-5-yl)oxy)-N-((4-(((2-oxaspiro[3.3]heptan-6-yl)methyl)amino)-3-nitrophenyl)sulfonyl)-4-(4-(1-bromo-6,7,8,9-tetrahydro-5H-benzo[7]annulen-5-yl)piperazin-1-yl)benzamide] | < 20 nM | 20 to 200 nM | < 50 nM
9 | O=C(NS(=O)(=O)c1ccc(NCC2CCOCC2)c([N+](=O)[O-])c1)c1ccc(N2CCN([C@@H]3CCCCc4c(Br)cc(F)cc43)CC2)cc1Oc1cnc2[nH]ccc2c1 [Compound 78, (R)-2-((1H-pyrrolo[2,3-b]pyridin-5-yl)oxy)-4-(4-(1-bromo-3-fluoro-6,7,8,9-tetrahydro-5H-benzo[7]annulen-5-yl)piperazin-1-yl)-N-((3-nitro-4-(((tetrahydro-2H-pyran-4-yl)methyl)amino)phenyl)sulfonyl)benzamide] | < 20 nM | 200 to 2000 nM | 50 to 500 nM
10 | O=C(NS(=O)(=O)c1ccc(NCC2CCC3(CC2)COC3)c([N+](=O)[O-])c1)c1ccc(N2CCN([C@@H]3CCCCc4c(Br)cc(F)cc43)CC2)cc1Oc1cnc2[nH]ccc2c1 [Compound 79, (R)-2-((1H-pyrrolo[2,3-b]pyridin-5-yl)oxy)-N-((4-(((2-oxaspiro[3.5]nonan-7-yl)methyl)amino)-3-nitrophenyl)sulfonyl)-4-(4-(1-bromo-3-fluoro-6,7,8,9-tetrahydro-5H-benzo[7]annulen-5-yl)piperazin-1-yl)benzamide] | < 20 nM | 200 to 2000 nM | 50 to 500 nM
11 | O=C(NS(=O)(=O)c1ccc(NCCN2CCC3(CC2)COC3)c([N+](=O)[O-])c1)c1ccc(N2CCN([C@@H]3CCCCc4c(Br)cc(F)cc43)CC2)cc1Oc1cnc2[nH]ccc2c1 [Compound 80, (R)-2-((1H-pyrrolo[2,3-b]pyridin-5-yl)oxy)-N-((4-((2-(2-oxa-7-azaspiro[3.5]nonan-7-yl)ethyl)amino)-3-nitrophenyl)sulfonyl)-4-(4-(1-bromo-3-fluoro-6,7,8,9-tetrahydro-5H-benzo[7]annulen-5-yl)piperazin-1-yl)benzamide] | < 20 nM | 20 to 200 nM | 500 to 5000 nM
12 | O=C(NS(=O)(=O)c1ccc(NCC2CCN(C3COC3)CC2)c([N+](=O)[O-])c1)c1ccc(N2CCN([C@@H]3CCCCc4c(Cl)cccc43)CC2)cc1Oc1cnc2[nH]ccc2c1 [Compound 83, (R)-2-((1H-pyrrolo[2,3-b]pyridin-5-yl)oxy)-4-(4-(1-chloro-6,7,8,9-tetrahydro-5H-benzo[7]annulen-5-yl)piperazin-1-yl)-N-((3-nitro-4-(((1-(oxetan-3-yl)piperidin-4-yl)methyl)amino)phenyl)sulfonyl)benzamide] | < 20 nM | < 20 nM | < 50 nM
13 | O=C(NS(=O)(=O)c1ccc(NCCN2CCN(C3COC3)CC2)c([N+](=O)[O-])c1)c1ccc(N2CCN([C@@H]3CCCCc4c(Cl)cccc43)CC2)cc1Oc1cnc2[nH]ccc2c1 [Compound 84, (R)-2-((1H-pyrrolo[2,3-b]pyridin-5-yl)oxy)-4-(4-(1-chloro-6,7,8,9-tetrahydro-5H-benzo[7]annulen-5-yl)piperazin-1-yl)-N-((3-nitro-4-((2-(4-(oxetan-3-yl)piperazin-1-yl)ethyl)amino)phenyl)sulfonyl)benzamide] | < 20 nM | 20 to 200 nM | < 50 nM
14 | O=C(NS(=O)(=O)c1ccc(NCC2(O)CCN(C3COC3)CC2)c([N+](=O)[O-])c1)c1ccc(N2CCN([C@@H]3CCCCc4c(Cl)cccc43)CC2)cc1Oc1cnc2[nH]ccc2c1 [Compound 85, (R)-2-((1H-pyrrolo[2,3-b]pyridin-5-yl)oxy)-4-(4-(1-chloro-6,7,8,9-tetrahydro-5H-benzo[7]annulen-5-yl)piperazin-1-yl)-N-((4-(((4-hydroxy-1-(oxetan-3-yl)piperidin-4-yl)methyl)amino)-3-nitrophenyl)sulfonyl)benzamide] | < 20 nM | < 20 nM | < 50 nM
15 | CN1CCC(CNc2ccc(S(=O)(=O)NC(=O)c3ccc(N4CCN([C@@H]5CCCCc6c(Cl)cc(F)cc65)CC4)cc3Oc3cnc4[nH]ccc4c3)cc2[N+](=O)[O-])CC1 [Compound 86, (R)-2-((1H-pyrrolo[2,3-b]pyridin-5-yl)oxy)-4-(4-(1-chloro-3-fluoro-6,7,8,9-tetrahydro-5H-benzo[7]annulen-5-yl)piperazin-1-yl)-N-((4-(((1-methylpiperidin-4-yl)methyl)amino)-3-nitrophenyl)sulfonyl)benzamide] | < 20 nM | < 20 nM | < 50 nM
16 | O=C(NS(=O)(=O)c1ccc(NCC2CCOCC2)c([N+](=O)[O-])c1)c1ccc(N2CCN([C@@H]3CCCCc4c(Cl)cc(F)cc43)CC2)cc1Oc1cnc2[nH]ccc2c1 [Compound 87, (R)-2-((1H-pyrrolo[2,3-b]pyridin-5-yl)oxy)-4-(4-(1-chloro-3-fluoro-6,7,8,9-tetrahydro-5H-benzo[7]annulen-5-yl)piperazin-1-yl)-N-((3-nitro-4-(((tetrahydro-2H-pyran-4-yl)methyl)amino)phenyl)sulfonyl)benzamide] | < 20 nM | 20 to 200 nM | < 50 nM

Reference: US20240239792A1, “MODULATORS OF BCL-2 OR BCL-2/BCL-XL AND USES THEREOF” (APPICINE THERAPEUTICS (HK) LIMITED, priority 2021, published 2024)
